In patent US20230203029A1 (priority 2020, published 2023) one finds IC50 data, which are given here for 15 compounds.

The structures appear in SMILES notation. Like-named read-outs stand apart in the source and are kept apart here.

The target of assay [1] is T1, human AXL cytoplasmic domain (Homo sapiens, UniProt P30530).
T1 construct: human AXL cytoplasmic domain (Thermo Fisher A31515); purchased Thermo Fisher A31515
T1 sequence (P30530 473-894 limits assumed): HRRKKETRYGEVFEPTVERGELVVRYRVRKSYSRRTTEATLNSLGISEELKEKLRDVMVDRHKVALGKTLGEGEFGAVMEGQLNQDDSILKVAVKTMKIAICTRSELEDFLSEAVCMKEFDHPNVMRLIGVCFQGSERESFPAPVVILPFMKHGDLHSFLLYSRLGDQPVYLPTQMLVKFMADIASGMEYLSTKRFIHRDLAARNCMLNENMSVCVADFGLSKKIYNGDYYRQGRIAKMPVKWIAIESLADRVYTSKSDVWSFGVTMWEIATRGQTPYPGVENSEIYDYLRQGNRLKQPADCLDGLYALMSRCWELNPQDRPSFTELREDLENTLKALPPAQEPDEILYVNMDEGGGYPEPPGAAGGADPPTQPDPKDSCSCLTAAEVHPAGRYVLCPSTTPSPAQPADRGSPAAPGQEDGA
The assay is described as follows: Assay 1b AXL HTRF KinEASE-TK assay. The format is biochemical. In short, it runs like this: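 Recombinant cytoplasmic domain (5 nM) in kinase buffer with 5 mM MgCl2, 1 mM MnCl2, 1 mM DTT, 50 nM SEB plus test compounds; reaction 30 min at room temperature. EDTA-containing detection with TK antibody-cryptate/streptavidin-XL665 for 60 min; HTRF 665/620 ratio read. IC50 from 4-parameter logistic fit with variable slope.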

Assay [2] concerns the target T2, recombinant human MERTK expressed in live cells (HEK 293, MERTK-Nanoluc fusion vector) (Homo sapiens, UniProt Q12866).
T2 construct: host or cells: HEK 293
T2 sequence (Q12866 21-999): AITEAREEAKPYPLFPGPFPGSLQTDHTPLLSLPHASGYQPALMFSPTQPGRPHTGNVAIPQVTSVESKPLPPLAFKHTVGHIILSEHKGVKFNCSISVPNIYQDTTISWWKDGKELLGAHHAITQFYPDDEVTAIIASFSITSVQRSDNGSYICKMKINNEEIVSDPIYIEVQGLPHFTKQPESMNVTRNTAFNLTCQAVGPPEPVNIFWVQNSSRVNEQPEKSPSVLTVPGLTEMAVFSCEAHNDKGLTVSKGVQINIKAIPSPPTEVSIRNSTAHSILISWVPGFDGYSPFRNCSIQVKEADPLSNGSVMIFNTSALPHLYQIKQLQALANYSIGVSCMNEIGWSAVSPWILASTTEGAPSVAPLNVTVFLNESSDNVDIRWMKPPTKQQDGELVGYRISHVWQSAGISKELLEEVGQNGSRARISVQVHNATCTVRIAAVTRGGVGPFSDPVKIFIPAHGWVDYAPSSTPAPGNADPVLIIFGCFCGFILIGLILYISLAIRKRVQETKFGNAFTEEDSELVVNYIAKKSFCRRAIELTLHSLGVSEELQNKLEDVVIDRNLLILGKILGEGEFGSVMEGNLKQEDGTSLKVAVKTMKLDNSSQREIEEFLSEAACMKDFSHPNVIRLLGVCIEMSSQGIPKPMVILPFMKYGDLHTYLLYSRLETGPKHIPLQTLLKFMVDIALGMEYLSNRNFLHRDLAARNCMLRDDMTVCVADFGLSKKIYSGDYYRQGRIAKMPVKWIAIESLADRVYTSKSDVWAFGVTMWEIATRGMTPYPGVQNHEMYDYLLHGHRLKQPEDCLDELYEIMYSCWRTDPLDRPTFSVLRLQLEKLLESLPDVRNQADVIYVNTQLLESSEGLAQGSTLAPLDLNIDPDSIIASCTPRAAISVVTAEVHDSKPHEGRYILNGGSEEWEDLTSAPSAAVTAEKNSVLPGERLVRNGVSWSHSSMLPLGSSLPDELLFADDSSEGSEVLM
The assay is described as follows: Assay 2 MERTK cellular target engagement (NanoBRET TE) assay. Format: cell-based. (In general: In BRET a luciferase serves as donor, and the signal depends on an acceptor being close.)

For assay [3], the target named is T3, human MERTK cytoplasmic domain (Homo sapiens, UniProt Q12866).
T3 construct: human MERTK cytoplasmic domain (Carna Biosciences 08-108); purchased Carna Biosciences 08-108
The experiment in a line: biochemical. The procedure: Assay 1a—MERTK HTRF KinEASE-TK Assay
The enzymatic reaction was carried out for 30 min at room temperature. 10 μL TK Antibody-Cryptate/Streptavidin-XL665 (Cisbio 610SAXLG) was then added for 60 min, including EDTA containing detection buffer (Cisbio 62SDBRDF) to stop the reaction.

Setting [4] is: HEK 293 cells, tracer K9, 2 h at 37° C., read-out: Assay 2 Cell TE MER IC50.
The mark [5] stands for this setting: 30 uM ATP, read-out: Assay 1a Mer IC50 30 uM ATP.

With `CN1CCC(NC(=O)c2cc3c(Nc4ccc(NC(=O)c5cccn(-c6ccccc6)c5=O)cc4)ccnc3cn2)CC1` [Example 3, N-(1-methyl-4-piperidyl)-4-[4-[(2-oxo-1-phenyl-pyridine-3-carbonyl)amino]anilino]-1,7-naphthyridine-6-carboxamide], the 50% inhibitory concentration (IC50) came out at 200 nM in assay [1], 26.3 nM in assay [2] (setting [4]) and 55 nM in assay [3] (setting [5]).

In the case of `O=C(Nc1ccc(Oc2ccnc3cnc(N4CCNCC4)cc23)cc1)c1cccn(-c2ccc(F)cc2)c1=O` [Example 12.2, 1-(4-fluorophenyl)-2-oxo-N-[4-[(6-piperazin-1-yl-1,7-naphthyridin-4-yl)oxy]phenyl]pyridine-3-carboxamide], the IC50 in assay [1] is 16 nM; in assay [2] (setting [4]), 18.3 nM; in assay [3] (setting [5]) it was 20 nM.

As for `CC(C)n1cc(C(=O)Nc2ccc(Oc3ccnc4cnc(N5CCNCC5)cc34)cc2)c(=O)n(-c2ccccn2)c1=O` [Example 12.3, 1-isopropyl-2,4-dioxo-N-[4-[(6-piperazin-1-yl-1,7-naphthyridin-4-yl)oxy]phenyl]-3-(2-pyridyl)pyrimidine-5-carboxamide], the IC50 in assay [1] was 19 nM; in assay [2] (setting [4]) it was 244 nM; in assay [3] (setting [5]), 56 nM.

Turning to `CC(C)n1cc(C(=O)Nc2ccc(Oc3ccnc4cnc(N5CCNCC5)cc34)cc2)c(=O)n(-c2ccc(F)cn2)c1=O` [Example 12.4, 3-(5-fluoro-2-pyridyl)-1-isopropyl-2,4-dioxo-N-[4-[(6-piperazin-1-yl-1,7-naphthyridin-4-yl)oxy]phenyl]pyrimidine-5-carboxamide], the IC50 in assay [1] was 6 nM; in assay [2] (setting [4]), 45.4 nM; in assay [3] (setting [5]) it was 8 nM.

Turning to `CC(C)n1cc(C(=O)Nc2ccc(Oc3ccnc4cnc(N5CCNCC5)cc34)cc2)c(=O)c(-c2ccc(F)cc2)c1` [Example 13, 5-(4-Fluorophenyl)-1-isopropyl-4-oxo-N-[4-[(6-piperazin-1-yl-1,7-naphthyridin-4-yl)oxy]phenyl]pyridine-3-carboxamide], the figures for the IC50 in assay [1], in assay [2] (setting [4]) and in assay [3] (setting [5]) were 6 nM, 6.7 nM and 1 nM, respectively.

As to `Cn1cc(C(=O)Nc2ccc(Oc3ccnc4cnc(N5CCNCC5)cc34)cc2)c(=O)c(-c2ccc(F)cc2)c1` [Example 13.1, 5-(4-fluorophenyl)-1-methyl-4-oxo-N-[4-[(6-piperazin-1-yl-1,7-naphthyridin-4-yl)oxy]phenyl]pyridine-3-carboxamide], the half-inhibitory concentration (IC50) is 10 nM in assay [1], 12.4 nM in assay [2] (setting [4]) and 4 nM in assay [3] (setting [5]).

With `C[C@H](CO)n1cc(C(=O)Nc2ccc(Oc3ccnc4cnc(C(=O)NC5CCN(C)CC5)cc34)cc2)c(=O)n(-c2ccc(F)cc2)c1=O` [Example 14, 4-[4-[[3-(4-Fluorophenyl)-2,4-dioxo-1-[(1R)-2-hydroxy-1-methyl-ethyl]pyrimidine-5-carbonyl]amino]phenoxy]-N-(1-methyl-4-piperidyl)-1,7-naphthyridine-6-carboxamide], the IC50 was 10 nM in assay [1], 75.9 nM in assay [2] (setting [4]) and 14 nM in assay [3] (setting [5]).

With `CN1CCC(NC(=O)c2cc3c(Oc4ccc(NC(=O)c5cn(C6CC6)c(=O)n(-c6ccc(F)cc6)c5=O)cc4)ccnc3cn2)CC1` [Example 15, 4-[4-[[1-Cyclopropyl-3-(4-fluorophenyl)-2,4-dioxo-pyrimidine-5-carbonyl]amino]phenoxy]-N-(1-methyl-4-piperidyl)-1,7-naphthyridine-6-carboxamide], the IC50 was found to be 10 nM in assay [1], 133 nM in assay [2] (setting [4]) and 22 nM in assay [3] (setting [5]).

Regarding `O=C(Nc1ccc(Oc2ccnc3cnc(N4CCN(C5COC5)CC4)cc23)cn1)c1ccnn(-c2ccc(F)cc2)c1=O` [Example 20, 2-(4-fluorophenyl)-N-[5-[[6-[4-(oxetan-3-yl)piperazin-1-yl]-1,7-naphthyridin-4-yl]oxy]-2-pyridyl]-3-oxo-pyridazine-4-carboxamide], the IC50 in assay [1] stood at 7 nM; in assay [3] (setting [5]), 3 nM.

As to `CC(C)n1cc(C(=O)Nc2ccc(Oc3ccnc4cnc(C(=O)NC5CCN(C)CC5)cc34)cn2)c(=O)n(-c2ccc(F)cc2)c1=O` [Example 27.5, 4-[[6-[[3-(4-fluorophenyl)-1-isopropyl-2,4-dioxo-pyrimidine-5-carbonyl]amino]-3-pyridyl]oxy]-N-(1-methyl-4-piperidyl)-1,7-naphthyridine-6-carboxamide], the IC50 in assay [1] was 9 nM; in assay [2] (setting [4]), 30.5 nM; in assay [3] (setting [5]), 15 nM.

Consider `Cc1cc(NC(=O)c2cccn(-c3ccccc3)c2=O)ccc1Oc1ccnc2cnc(N3CCNCC3)cc12` [Example 30, N-[3-methyl-4-[(6-piperazin-1-yl-1,7-naphthyridin-4-yl)oxy]phenyl]-2-oxo-1-phenyl-pyridine-3-carboxamide], for which the IC50 in assay [1] was 870 nM; in assay [2] it was 244 nM; in assay [3], 13 nM.

As for `CN1CCC(NC(=O)c2cc3c(Oc4ccc(NC(=O)c5cccn(-c6ccccc6)c5=O)cc4F)ccnc3cn2)CC1` [Example 33, 4-[2-fluoro-4-[(2-oxo-1-phenyl-pyridine-3-carbonyl)amino]phenoxy]-N-(1-methyl-4-piperidyl)-1,7-naphthyridine-6-carboxamide], the values for the IC50 in assay [1], in assay [2] (setting [4]) and in assay [3] (setting [5]) were 38 nM, 74.3 nM and 8 nM, respectively.

With `O=C(Nc1ccc(Oc2ccnc3cnc(N4CCNCC4)cc23)cc1)c1cn(C2CC2)c(=O)n(-c2ccc(F)cc2)c1=O` [Example 36, 1-cyclopropyl-3-(4-fluorophenyl)-2,4-dioxo-N-[4-[(6-piperazin-1-yl-1,7-naphthyridin-4-yl)oxy]phenyl]pyrimidine-5-carboxamide], the IC50 in assay [1] was found to be 5 nM; in assay [2] (setting [4]), 68.1 nM; in assay [3] (setting [5]), 20 nM.

Take `CN1CCC(NC(=O)c2cc3c(Oc4ccc(NC(=O)c5cn(C)cc(-c6ccc(F)cc6)c5=O)cc4)ccnc3cn2)CC1` [Example 37, 4-[4-[[5-(4-fluorophenyl)-1-methyl-4-oxo-pyridine-3-carbonyl]amino]phenoxy]-N-(1-methyl-4-piperidyl)-1,7-naphthyridine-6-carboxamide]: the 50% inhibitory concentration (IC50) came to 7 nM in assay [1], 41.4 nM in assay [2] (setting [4]) and 3 nM in assay [3] (setting [5]).

Turning to `CC(C)n1cc(C(=O)Nc2ccc(Oc3ccnc4cnc(C(=O)NC5CCN(C)CC5)cc34)cc2)c(=O)c(-c2ccc(F)cc2)c1` [Example 37.1, 4-[4-[[5-(4-fluorophenyl)-1-isopropyl-4-oxo-pyridine-3-carbonyl]amino]phenoxy]-N-(1-methyl-4-piperidyl)-1,7-naphthyridine-6-carboxamide], the IC50 in assay [1] was 5 nM; in assay [2] (setting [4]), 8.3 nM; in assay [3] (setting [5]), 2 nM.

As a reminder, the IC50 is the concentration at which inhibition is half-maximal.
